# Assay results taken from ChEMBL document CHEMBL5465560, “Selectivity Literature for EUbOPEN Chemogenomic Library” (2024).
# Key:
# [1] = target: T1, Peripheral plasma membrane protein CASK (Homo sapiens) (UniProt O14936); assay: Selectivity interaction (KinomeScan (DiscoverX)) EUB0000666a CASK; details: at 10 µM
# T1 sequence (whole entry): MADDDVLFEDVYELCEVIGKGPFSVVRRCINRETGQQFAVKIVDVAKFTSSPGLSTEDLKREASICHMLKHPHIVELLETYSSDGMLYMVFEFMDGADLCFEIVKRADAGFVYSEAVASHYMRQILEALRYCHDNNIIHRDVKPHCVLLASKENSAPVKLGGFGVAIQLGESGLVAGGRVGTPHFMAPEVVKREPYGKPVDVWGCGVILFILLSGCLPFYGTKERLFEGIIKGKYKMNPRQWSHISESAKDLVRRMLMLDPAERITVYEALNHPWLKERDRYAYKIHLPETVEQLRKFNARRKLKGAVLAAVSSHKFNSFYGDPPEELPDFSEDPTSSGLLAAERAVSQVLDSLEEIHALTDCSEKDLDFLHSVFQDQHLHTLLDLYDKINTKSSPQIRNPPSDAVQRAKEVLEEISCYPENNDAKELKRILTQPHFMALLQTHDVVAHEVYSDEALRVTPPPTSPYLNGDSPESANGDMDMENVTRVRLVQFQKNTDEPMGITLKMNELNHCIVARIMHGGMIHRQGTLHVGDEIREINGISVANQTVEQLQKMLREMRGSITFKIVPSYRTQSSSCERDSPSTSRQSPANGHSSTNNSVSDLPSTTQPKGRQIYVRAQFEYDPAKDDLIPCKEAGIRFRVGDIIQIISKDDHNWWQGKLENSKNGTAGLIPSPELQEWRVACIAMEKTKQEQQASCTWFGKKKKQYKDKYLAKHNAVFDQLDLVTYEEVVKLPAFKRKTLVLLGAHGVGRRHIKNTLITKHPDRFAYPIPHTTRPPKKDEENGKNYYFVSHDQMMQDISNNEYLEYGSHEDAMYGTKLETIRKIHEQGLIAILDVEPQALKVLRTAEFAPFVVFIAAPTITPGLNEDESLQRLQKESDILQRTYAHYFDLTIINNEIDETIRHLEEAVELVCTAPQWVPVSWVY
# [2] = target: BMP-2-inducible protein kinase (Homo sapiens) (UniProt Q9NSY1); details: at 10 µM
# [3] = target: Interferon-induced, double-stranded RNA-activated protein kinase (Homo sapiens) (UniProt P19525); assay: Selectivity interaction (ActivX KiNativ screen (kinase selectivity in THP-1 cell lysates)) EUB0000639a EIF2AK2; format: subcellular; details: lysate, at 0.01 µM
# [4] = target: Serine/threonine-protein kinase 24 (Homo sapiens) (UniProt Q9Y6E0); assay: Selectivity interaction (ActivX KiNativ screen (kinase selectivity in THP-1 cell lysates)) EUB0000639a STK24; format: subcellular; details: lysate
# [5] = target: Cyclin-dependent kinase 17 (Homo sapiens) (UniProt Q00537); assay: Selectivity interaction (ActivX KiNativ screen (kinase selectivity in THP-1 cell lysates)) EUB0000639a CDK17; format: subcellular; details: lysate, at 0.04 µM
# [6] = target: Serine/threonine-protein kinase PAK 6 (Homo sapiens) (UniProt Q9NQU5); assay: Selectivity interaction (KinomeScan (DiscoverX)) EUB0001049a PAK6; details: at 1 µM
# [7] = target: T2, Phosphatidylinositol 5-phosphate 4-kinase type-2 gamma (Homo sapiens) (UniProt Q8TBX8); assay: Selectivity interaction (Ambit KINOMEscan and KiNATiv profiling in Jurkat cells) EUB0000090b PIP4K2C; format: cell-based; details: at 1 µM
# T2 sequence (whole entry): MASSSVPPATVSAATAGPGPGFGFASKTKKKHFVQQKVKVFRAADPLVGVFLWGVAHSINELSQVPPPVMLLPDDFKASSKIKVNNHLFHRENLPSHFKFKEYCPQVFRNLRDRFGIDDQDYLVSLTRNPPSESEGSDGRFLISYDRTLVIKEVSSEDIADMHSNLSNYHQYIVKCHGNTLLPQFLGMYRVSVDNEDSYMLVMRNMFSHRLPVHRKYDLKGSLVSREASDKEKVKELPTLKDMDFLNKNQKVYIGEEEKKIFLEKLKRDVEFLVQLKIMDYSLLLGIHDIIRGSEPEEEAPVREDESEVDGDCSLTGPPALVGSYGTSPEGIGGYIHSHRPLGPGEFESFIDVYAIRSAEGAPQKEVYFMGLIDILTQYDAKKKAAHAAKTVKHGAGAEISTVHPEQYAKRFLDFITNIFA
# [8] = target: Tyrosine-protein kinase Fer (Homo sapiens) (UniProt P16591); assay: Selectivity interaction (KinomeScan (DiscoverX)) EUB0000655a FER; details: at 10 µM
# [9] = target: Calcium/calmodulin-dependent protein kinase type II subunit gamma (Homo sapiens) (UniProt Q13555); assay: Selectivity interaction (KinomeScan (DiscoverX)) EUB0000045b CAMK2G
# [10] = target: Serine/threonine-protein kinase MRCK alpha (Homo sapiens) (UniProt Q5VT25); assay: Selectivity interaction (KinomeScan (DiscoverX)) EUB0000045b CDC42BPA
# [11] = target: Calcium/calmodulin-dependent protein kinase type II subunit beta (Homo sapiens) (UniProt Q13554); assay: Selectivity interaction (KinomeScan (DiscoverX)) EUB0001079a CAMK2B; details: at 1 µM
# [12] = target: T3, Serine/threonine-protein kinase Sgk2 (Homo sapiens) (UniProt Q9HBY8); assay: Selectivity interaction (KinomeScan (DiscoverX)) EUB0001079a SGK2; details: at 1 µM
# T3 sequence (whole entry): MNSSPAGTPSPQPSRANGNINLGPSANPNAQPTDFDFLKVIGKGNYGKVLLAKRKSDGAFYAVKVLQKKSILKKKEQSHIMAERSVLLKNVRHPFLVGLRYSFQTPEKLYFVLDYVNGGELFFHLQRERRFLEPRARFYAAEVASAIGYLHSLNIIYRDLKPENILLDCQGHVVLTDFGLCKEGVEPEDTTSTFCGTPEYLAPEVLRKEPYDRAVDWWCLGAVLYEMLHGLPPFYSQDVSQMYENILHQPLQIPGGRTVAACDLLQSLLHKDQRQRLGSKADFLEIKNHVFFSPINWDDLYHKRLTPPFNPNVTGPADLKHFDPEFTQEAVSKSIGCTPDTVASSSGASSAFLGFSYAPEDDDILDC
# [13] = target: Serine/threonine-protein kinase WNK2 (Homo sapiens) (UniProt Q9Y3S1); assay: Selectivity interaction (KinomeScan (DiscoverX)) EUB0000229b WNK2; details: at 10 µM
# [14] = target: Rho-associated protein kinase 1 (Homo sapiens) (UniProt Q13464); assay: Selectivity interaction (KinomeScan (DiscoverX)) EUB0000092b ROCK1; details: at 10 µM
# [15] = target: Death-associated protein kinase 2 (Homo sapiens) (UniProt Q9UIK4); details: at 10 µM
# [16] = target: RAC-alpha serine/threonine-protein kinase (Homo sapiens, UniProt P31749); assay: Selectivity interaction (KinomeScan (DiscoverX)) EUB0000618a AKT1; details: at 10 µM
# Chain of RAC-alpha serine/threonine-protein kinase (P31749 whole entry): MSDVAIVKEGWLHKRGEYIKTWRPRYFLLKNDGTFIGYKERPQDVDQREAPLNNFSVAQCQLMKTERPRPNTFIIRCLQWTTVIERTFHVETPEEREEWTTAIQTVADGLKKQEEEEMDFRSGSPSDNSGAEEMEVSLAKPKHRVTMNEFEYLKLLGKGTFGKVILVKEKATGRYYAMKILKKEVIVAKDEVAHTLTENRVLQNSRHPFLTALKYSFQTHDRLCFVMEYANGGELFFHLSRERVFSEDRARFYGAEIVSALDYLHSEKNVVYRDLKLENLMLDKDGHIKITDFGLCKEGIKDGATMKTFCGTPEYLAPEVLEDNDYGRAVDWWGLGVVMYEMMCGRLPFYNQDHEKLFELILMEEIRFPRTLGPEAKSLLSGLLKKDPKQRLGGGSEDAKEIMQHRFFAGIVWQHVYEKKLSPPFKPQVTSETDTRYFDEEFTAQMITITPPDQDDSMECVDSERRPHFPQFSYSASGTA
# Chain of Serine/threonine-protein kinase 24 (Homo sapiens) (Q9Y6E0 whole entry, looked up): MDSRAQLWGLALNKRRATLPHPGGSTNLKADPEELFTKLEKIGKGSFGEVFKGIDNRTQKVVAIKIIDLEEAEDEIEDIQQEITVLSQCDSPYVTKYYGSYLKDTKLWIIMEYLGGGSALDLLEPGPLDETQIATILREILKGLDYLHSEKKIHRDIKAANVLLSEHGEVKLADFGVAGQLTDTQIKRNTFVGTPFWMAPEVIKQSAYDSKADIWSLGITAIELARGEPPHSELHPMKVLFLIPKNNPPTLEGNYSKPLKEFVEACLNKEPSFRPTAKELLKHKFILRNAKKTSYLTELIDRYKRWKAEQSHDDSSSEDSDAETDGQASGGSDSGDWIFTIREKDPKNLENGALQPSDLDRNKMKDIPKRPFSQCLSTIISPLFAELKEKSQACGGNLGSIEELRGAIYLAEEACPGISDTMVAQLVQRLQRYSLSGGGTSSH
# Chain of Calcium/calmodulin-dependent protein kinase type II subunit gamma (Homo sapiens) (Q13555 whole entry): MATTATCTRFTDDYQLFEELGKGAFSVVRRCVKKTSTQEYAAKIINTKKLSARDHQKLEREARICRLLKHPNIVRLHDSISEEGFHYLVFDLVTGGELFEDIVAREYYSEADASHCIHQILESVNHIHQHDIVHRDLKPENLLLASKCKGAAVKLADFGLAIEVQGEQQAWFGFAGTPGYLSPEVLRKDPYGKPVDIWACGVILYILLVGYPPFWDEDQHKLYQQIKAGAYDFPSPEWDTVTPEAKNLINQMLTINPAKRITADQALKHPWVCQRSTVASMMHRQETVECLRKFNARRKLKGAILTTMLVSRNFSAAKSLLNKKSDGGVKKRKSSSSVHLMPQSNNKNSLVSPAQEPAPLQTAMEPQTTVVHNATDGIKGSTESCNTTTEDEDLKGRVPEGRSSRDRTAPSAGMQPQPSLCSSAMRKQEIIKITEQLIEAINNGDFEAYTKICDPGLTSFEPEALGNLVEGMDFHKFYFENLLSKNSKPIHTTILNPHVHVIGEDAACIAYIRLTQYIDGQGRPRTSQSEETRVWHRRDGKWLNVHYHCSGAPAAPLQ
# Chain of Serine/threonine-protein kinase MRCK alpha (Homo sapiens) (Q5VT25 whole entry): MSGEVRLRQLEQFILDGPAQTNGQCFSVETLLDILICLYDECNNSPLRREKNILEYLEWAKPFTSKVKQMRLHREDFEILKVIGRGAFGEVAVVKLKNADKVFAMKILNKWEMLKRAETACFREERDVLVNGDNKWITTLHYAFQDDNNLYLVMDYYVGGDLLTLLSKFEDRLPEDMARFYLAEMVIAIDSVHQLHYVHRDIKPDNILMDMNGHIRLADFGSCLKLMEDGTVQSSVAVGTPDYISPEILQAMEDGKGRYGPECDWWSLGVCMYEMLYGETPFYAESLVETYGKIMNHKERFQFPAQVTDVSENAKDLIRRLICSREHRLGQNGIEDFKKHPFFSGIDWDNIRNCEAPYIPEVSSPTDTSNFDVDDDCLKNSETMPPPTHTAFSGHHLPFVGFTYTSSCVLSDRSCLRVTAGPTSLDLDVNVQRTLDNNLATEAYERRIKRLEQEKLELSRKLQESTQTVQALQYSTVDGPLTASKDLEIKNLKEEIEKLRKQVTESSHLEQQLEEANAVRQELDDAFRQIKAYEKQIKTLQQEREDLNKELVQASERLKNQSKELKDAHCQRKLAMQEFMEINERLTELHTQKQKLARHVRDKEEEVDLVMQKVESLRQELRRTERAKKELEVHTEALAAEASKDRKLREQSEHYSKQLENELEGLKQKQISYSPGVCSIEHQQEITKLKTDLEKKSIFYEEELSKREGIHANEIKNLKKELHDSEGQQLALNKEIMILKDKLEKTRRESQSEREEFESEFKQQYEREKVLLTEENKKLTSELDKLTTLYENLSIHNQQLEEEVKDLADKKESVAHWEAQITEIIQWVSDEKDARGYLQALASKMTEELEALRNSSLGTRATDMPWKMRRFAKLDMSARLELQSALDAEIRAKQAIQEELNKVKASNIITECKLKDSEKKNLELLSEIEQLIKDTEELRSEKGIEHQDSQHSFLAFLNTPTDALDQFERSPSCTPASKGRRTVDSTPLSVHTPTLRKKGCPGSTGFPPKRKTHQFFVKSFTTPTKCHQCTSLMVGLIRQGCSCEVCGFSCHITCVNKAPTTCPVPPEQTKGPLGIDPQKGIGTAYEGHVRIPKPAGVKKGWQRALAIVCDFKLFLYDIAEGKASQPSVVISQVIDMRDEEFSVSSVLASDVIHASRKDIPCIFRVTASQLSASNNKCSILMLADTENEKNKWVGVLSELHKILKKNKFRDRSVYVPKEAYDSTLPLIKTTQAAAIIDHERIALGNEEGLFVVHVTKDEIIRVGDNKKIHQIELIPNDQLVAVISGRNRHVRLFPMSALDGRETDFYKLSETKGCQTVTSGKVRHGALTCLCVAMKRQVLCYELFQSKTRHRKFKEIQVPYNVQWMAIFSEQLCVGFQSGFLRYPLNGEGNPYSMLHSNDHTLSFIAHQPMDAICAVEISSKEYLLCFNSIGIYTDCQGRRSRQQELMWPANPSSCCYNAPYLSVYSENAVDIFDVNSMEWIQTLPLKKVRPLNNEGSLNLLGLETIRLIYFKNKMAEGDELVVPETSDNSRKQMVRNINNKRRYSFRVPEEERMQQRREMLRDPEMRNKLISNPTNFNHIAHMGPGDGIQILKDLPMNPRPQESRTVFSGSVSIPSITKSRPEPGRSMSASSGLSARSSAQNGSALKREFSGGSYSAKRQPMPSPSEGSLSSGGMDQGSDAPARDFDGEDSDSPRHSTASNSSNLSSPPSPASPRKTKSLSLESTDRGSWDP
# Chain of Death-associated protein kinase 2 (Homo sapiens) (Q9UIK4 whole entry, looked up): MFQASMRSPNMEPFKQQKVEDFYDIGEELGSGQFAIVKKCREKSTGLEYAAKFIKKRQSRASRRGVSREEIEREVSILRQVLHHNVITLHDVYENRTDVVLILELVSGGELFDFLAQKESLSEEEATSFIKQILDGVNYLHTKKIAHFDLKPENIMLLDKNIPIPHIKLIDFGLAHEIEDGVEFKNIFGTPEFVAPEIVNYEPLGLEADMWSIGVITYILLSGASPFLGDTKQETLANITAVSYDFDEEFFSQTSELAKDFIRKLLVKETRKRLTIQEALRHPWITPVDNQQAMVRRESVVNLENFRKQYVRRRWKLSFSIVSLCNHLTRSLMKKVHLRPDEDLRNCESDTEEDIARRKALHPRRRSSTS
# Chain of Interferon-induced, double-stranded RNA-activated protein kinase (Homo sapiens) (P19525 whole entry): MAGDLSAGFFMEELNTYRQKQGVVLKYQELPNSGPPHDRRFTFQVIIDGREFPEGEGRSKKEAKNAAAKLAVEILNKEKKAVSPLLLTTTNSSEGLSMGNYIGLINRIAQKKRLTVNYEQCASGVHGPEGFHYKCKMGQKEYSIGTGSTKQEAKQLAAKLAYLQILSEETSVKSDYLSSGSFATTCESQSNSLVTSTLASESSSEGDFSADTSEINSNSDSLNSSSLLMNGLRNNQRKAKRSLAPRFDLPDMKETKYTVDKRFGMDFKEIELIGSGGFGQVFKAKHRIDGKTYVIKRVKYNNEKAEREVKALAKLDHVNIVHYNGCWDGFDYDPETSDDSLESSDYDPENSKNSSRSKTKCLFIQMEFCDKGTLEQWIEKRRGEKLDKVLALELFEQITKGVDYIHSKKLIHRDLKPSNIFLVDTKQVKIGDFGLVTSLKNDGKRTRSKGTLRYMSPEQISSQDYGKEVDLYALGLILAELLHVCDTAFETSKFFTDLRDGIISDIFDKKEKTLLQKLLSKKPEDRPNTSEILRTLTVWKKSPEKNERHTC
# Chain of Calcium/calmodulin-dependent protein kinase type II subunit beta (Homo sapiens) (Q13554 whole entry): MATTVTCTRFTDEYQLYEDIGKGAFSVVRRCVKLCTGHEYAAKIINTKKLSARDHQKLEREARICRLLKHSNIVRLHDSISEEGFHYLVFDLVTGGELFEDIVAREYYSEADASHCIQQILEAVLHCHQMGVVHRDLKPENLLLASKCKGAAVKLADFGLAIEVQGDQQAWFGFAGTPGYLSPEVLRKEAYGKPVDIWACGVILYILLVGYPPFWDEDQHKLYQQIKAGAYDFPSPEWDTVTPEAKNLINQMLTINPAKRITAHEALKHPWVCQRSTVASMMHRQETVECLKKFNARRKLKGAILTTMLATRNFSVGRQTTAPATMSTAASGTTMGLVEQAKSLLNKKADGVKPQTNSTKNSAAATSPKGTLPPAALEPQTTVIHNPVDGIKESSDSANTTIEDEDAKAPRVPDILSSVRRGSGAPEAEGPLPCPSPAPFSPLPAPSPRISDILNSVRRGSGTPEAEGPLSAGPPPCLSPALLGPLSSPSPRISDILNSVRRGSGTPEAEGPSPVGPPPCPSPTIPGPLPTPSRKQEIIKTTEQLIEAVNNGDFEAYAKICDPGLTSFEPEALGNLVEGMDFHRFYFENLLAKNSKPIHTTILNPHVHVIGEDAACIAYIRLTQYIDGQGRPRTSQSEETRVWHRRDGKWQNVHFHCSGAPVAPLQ
smiles,measurement,setting,value
O=C(NOC[C@H](O)CO)c1ccc(F)c(F)c1Nc1ccc(I)cc1F,% of control,[1],67%
CCN(CC)CCCCNc1ncc2cc(-c3cc(OC)cc(OC)c3)c(NC(=O)NC(C)(C)C)nc2n1,% of control,[2],100%
CC[C@@H]1[C@H](F)C(=O)N[C@@H]1COc1nccc2cc(C(N)=O)c(OC)cc12 [ZIMLOVISERTIB],% of inhibition,[3],-1.7%
same,% of inhibition,[4]; at 0.01 µM,3.4%
same,% of inhibition,[4]; at 0.04 µM,-19.7%
same,% of inhibition,[4]; at 0.2 µM,-5.9%
same,% of inhibition,[4]; at 1 µM,6%
same,% of inhibition,[4]; at 5 µM,5.4%
same,% of inhibition,[5],1.7%
COc1cc(Nc2nc(C)cc(-c3cnn4nc(OC)ccc34)n2)cc(C(F)(F)F)c1,% of control,[6],82%
CN(C)C/C=C/C(=O)Nc1ccc(C(=O)N2CCCC(Nc3ncc(Cl)c(-c4c[nH]c5ccccc45)n3)C2)cc1 (configuration not stated),% of control,[7],91%
CN(C)CCOc1ccc(-c2nc(-c3ccncc3)c(-c3ccc4c(c3)CC/C4=N\O)[nH]2)cc1,% of control,[8],100%
C=CC(=O)Nc1cc(-n2c(=O)ccc3cnc4ccc(-c5ccc(NS(C)(=O)=O)cc5)cc4c32)ccc1C,% of control,[9]; at 1 µM,100%
same,% of control,[9]; at 10 µM,96%
same,% of control,[10]; at 1 µM,100%
same,% of control,[10]; at 10 µM,96%
Nc1cnc(N2CCc3cc(S(=O)(=O)Nc4c(F)cc(Cl)cc4F)cc(N4CCCC4=O)c32)nc1 [TP-020n],% of control,[11],100%
same,% of control,[12],76%
COc1cc(N(C)c2ccnc3ccc(C(F)(F)F)cc23)cc(OC)c1OC,% binding,[13],100%
CCC(=O)N1CCN(c2ccc(-n3c(=O)ccc4cnc5ccc(-c6cnc7ccccc7c6)cc5c43)cc2C(F)(F)F)CC1,% of control,[14],53%
Cc1cc([C@@H](C)Nc2ccccc2C(=O)O)c2nc(N3CCOCC3)cc(=O)n2c1 [AZD-6482],% of control,[15],92%
O[C@H]1CC[C@H](Nc2ncc3nc(Nc4c(F)cc(F)cc4F)n([C@H]4CCOC4)c3n2)CC1,% of control,[16],72%
